Earlier results as cited in article PMC4626739 (Toxins, 2015).

Substance: Kalata B1
- resistance to chaotropic agents and proteases: extremely resistant
- thermal stability: highly thermostable
